Measured values taken from PubChem BioAssay AID1963985 (Molecular Pharmacology Branch, DTP, NCI, 2024).
Blank lines part the entries; values can stand above or below the compound they belong to.

System: 252836-082-R-J2-PDC tumor spheroids, viability
Assay: Anticancer human tumor 252836-082-R-J2-PDC patient-derived head and neck squamous cell carcinoma cell line growth inhibition [PI3K]
Details: spheroids with HUVEC and MSC; for IC50: curve of first compound; for viability, T/C: stronger effect = lower value
Procedure, shortened: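 Complex 3D spheroids (cancer cells + endothelial HUVEC + mesenchymal stem cells); drug pairs of targeted agent x inavolisib/alpelisib/duvelisib/copanlisib; half-log series from ~Cmax, max 10 microM if Cmax unknown; endpoint viability.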

[1] = second compound 0.00316 µM, first compound 0.0316 µM
[2] = second compound 0.00316 µM, first compound 0.1 µM
[3] = second compound 0.00316 µM, first compound 0.316 µM
[4] = second compound 0.00316 µM, first compound 1 µM
[5] = second compound 0.00316 µM, first compound 3.16 µM
[6] = second compound 0.00316 µM, first compound 10 µM
[7] = second compound 0.01 µM, first compound 0.0316 µM
[8] = second compound 0.01 µM, first compound 0.1 µM
[9] = second compound 0.01 µM, first compound 0.316 µM
[10] = second compound 0.01 µM, first compound 1 µM
[11] = second compound 0.01 µM, first compound 3.16 µM
[12] = second compound 0.01 µM, first compound 10 µM
[13] = second compound 0.0316 µM, first compound 0.0316 µM
[14] = second compound 0.0316 µM, first compound 0.1 µM
[15] = second compound 0.0316 µM, first compound 0.316 µM
[16] = second compound 0.0316 µM, first compound 1 µM
[17] = second compound 0.0316 µM, first compound 3.16 µM
[18] = second compound 0.0316 µM, first compound 10 µM
[19] = second compound 0.1 µM, first compound 0.0316 µM
[20] = second compound 0.1 µM, first compound 0.1 µM
[21] = second compound 0.1 µM, first compound 0.316 µM
[22] = second compound 0.1 µM, first compound 1 µM
[23] = second compound 0.1 µM, first compound 3.16 µM
[24] = second compound 0.1 µM, first compound 10 µM
[25] = second compound 0.316 µM, first compound 0.0316 µM
[26] = second compound 0.316 µM, first compound 0.1 µM
[27] = second compound 0.316 µM, first compound 0.316 µM
[28] = second compound 0.316 µM, first compound 1 µM
[29] = second compound 0.316 µM, first compound 3.16 µM
[30] = second compound 0.316 µM, first compound 10 µM
[31] = second compound 1 µM, first compound 0.0316 µM
[32] = second compound 1 µM, first compound 0.1 µM
[33] = second compound 1 µM, first compound 0.316 µM
[34] = second compound 1 µM, first compound 1 µM
[35] = second compound 1 µM, first compound 3.16 µM
[36] = second compound 1 µM, first compound 10 µM
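Note: spheroids exposed to agents for seven days before readout.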
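Throughout, for viability, T/C: percent of vehicle DMSO control viability so 100% = untreated growth.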

IC50 (second compound 0.00316 µM): > 10 µM | IC50 (second compound 0.01 µM): > 10 µM | IC50 (second compound 0.0316 µM): > 10 µM | IC50 (second compound 0.1 µM): 3.73 µM | IC50 (second compound 0.316 µM): 0.0817 µM | IC50 (second compound 1 µM): < 0.0316 µM
Structure (SMILES): C#Cc1c(F)ccc2cc(O)cc(-c3ncc4c(N5CC6CCC(C5)N6)nc(OCC56CCCN5CC(F)C6)nc4c3F)c12 (stereo not drawn) + CC(Nc1ccc2c(c1)OCCn1cc(N3C(=O)OCC3C(F)F)nc1-2)C(N)=O
viability, T/C [1]: 91.8% | viability, T/C [2]: 72.8% | viability, T/C [3]: 76.1% | viability, T/C [4]: 82.2% | viability, T/C [5]: 72% | viability, T/C [6]: 50.7% | viability, T/C [7]: 83.7% | viability, T/C [8]: 73.6% | viability, T/C [9]: 78.6% | viability, T/C [10]: 71% | viability, T/C [11]: 75.6% | viability, T/C [12]: 59.5% | viability, T/C [13]: 74.6% | viability, T/C [14]: 67.4% | viability, T/C [15]: 68.9% | viability, T/C [16]: 58.8% | viability, T/C [17]: 56% | viability, T/C [18]: 56.1% | viability, T/C [19]: 62.9% | viability, T/C [20]: 56.3% | viability, T/C [21]: 61.9% | viability, T/C [22]: 61.1% | viability, T/C [23]: 49.3% | viability, T/C [24]: 38.9% | viability, T/C [25]: 56% | viability, T/C [26]: 45.9% | viability, T/C [27]: 46.7% | viability, T/C [28]: 38% | viability, T/C [29]: 39.4% | viability, T/C [30]: 32.6% | viability, T/C [31]: 46.1% | viability, T/C [32]: 38.7% | viability, T/C [33]: 45.1% | viability, T/C [34]: 36.6% | viability, T/C [35]: 33.2% | viability, T/C [36]: 26.6%

IC50 (second compound 0.00316 µM): > 10 µM | IC50 (second compound 0.01 µM): > 10 µM | IC50 (second compound 0.0316 µM): > 10 µM | IC50 (second compound 0.1 µM): > 10 µM | IC50 (second compound 0.316 µM): > 10 µM | IC50 (second compound 1 µM): < 0.0316 µM
Structure (SMILES): C=CC(=O)N1CCN(c2nc(=O)n(-c3c(C)ccnc3C(C)C)c3nc(-c4c(O)cccc4F)c(F)cc23)C(C)C1 (stereo not drawn) + CC(Nc1ccc2c(c1)OCCn1cc(N3C(=O)OCC3C(F)F)nc1-2)C(N)=O
viability, T/C [1]: 104% | viability, T/C [2]: 87.8% | viability, T/C [3]: 105% | viability, T/C [4]: 105% | viability, T/C [5]: 115% | viability, T/C [6]: 95.9% | viability, T/C [7]: 95.3% | viability, T/C [8]: 90% | viability, T/C [9]: 117% | viability, T/C [10]: 86.8% | viability, T/C [11]: 104% | viability, T/C [12]: 89.7% | viability, T/C [13]: 79.2% | viability, T/C [14]: 78.6% | viability, T/C [15]: 104% | viability, T/C [16]: 88.4% | viability, T/C [17]: 100% | viability, T/C [18]: 78.3% | viability, T/C [19]: 76.1% | viability, T/C [20]: 62.8% | viability, T/C [21]: 76.9% | viability, T/C [22]: 76.3% | viability, T/C [23]: 81% | viability, T/C [24]: 94.6% | viability, T/C [25]: 63.5% | viability, T/C [26]: 60.6% | viability, T/C [27]: 59.5% | viability, T/C [28]: 56.3% | viability, T/C [29]: 62.2% | viability, T/C [30]: 67.6% | viability, T/C [31]: 45.3% | viability, T/C [32]: 53% | viability, T/C [33]: 53.3% | viability, T/C [34]: 41.6% | viability, T/C [35]: 57% | viability, T/C [36]: 47.7%

IC50 (second compound 0.00316 µM): > 10 µM | IC50 (second compound 0.01 µM): > 10 µM | IC50 (second compound 0.0316 µM): > 10 µM | IC50 (second compound 0.1 µM): > 10 µM | IC50 (second compound 0.316 µM): > 10 µM | IC50 (second compound 1 µM): < 0.0316 µM
Structure (SMILES): CC(Cn1ccc(-c2ccc(C#N)c(Cl)c2)n1)NC(=O)c1cc(C(C)O)[nH]n1 (stereo not drawn) + CC(Nc1ccc2c(c1)OCCn1cc(N3C(=O)OCC3C(F)F)nc1-2)C(N)=O
viability, T/C [1]: 94.1% | viability, T/C [2]: 88.5% | viability, T/C [3]: 97.6% | viability, T/C [4]: 94.7% | viability, T/C [5]: 98.7% | viability, T/C [6]: 90.6% | viability, T/C [7]: 102% | viability, T/C [8]: 87.6% | viability, T/C [9]: 87.6% | viability, T/C [10]: 106% | viability, T/C [11]: 90.7% | viability, T/C [12]: 88.8% | viability, T/C [13]: 78.4% | viability, T/C [14]: 82.8% | viability, T/C [15]: 86.1% | viability, T/C [16]: 74.8% | viability, T/C [17]: 78.3% | viability, T/C [18]: 87.9% | viability, T/C [19]: 62.1% | viability, T/C [20]: 63.4% | viability, T/C [21]: 68.1% | viability, T/C [22]: 66.1% | viability, T/C [23]: 66.1% | viability, T/C [24]: 65.8% | viability, T/C [25]: 57.7% | viability, T/C [26]: 57.8% | viability, T/C [27]: 56.1% | viability, T/C [28]: 56.8% | viability, T/C [29]: 56.8% | viability, T/C [30]: 46.5% | viability, T/C [31]: 50.2% | viability, T/C [32]: 47.3% | viability, T/C [33]: 46.8% | viability, T/C [34]: 45.3% | viability, T/C [35]: 49.9% | viability, T/C [36]: 47.3%

IC50 (second compound 0.00316 µM): < 0.0316 µM | IC50 (second compound 0.01 µM): < 0.0316 µM | IC50 (second compound 0.0316 µM): < 0.0316 µM | IC50 (second compound 0.1 µM): < 0.0316 µM | IC50 (second compound 0.316 µM): < 0.0316 µM | IC50 (second compound 1 µM): < 0.0316 µM
Structure (SMILES): CC1(C)CCC(Nc2ncc(C(F)(F)F)c(-c3c[nH]c4c(P(C)(C)=O)c(C#N)ccc34)n2)CN1 (stereo not drawn) + CC(Nc1ccc2c(c1)OCCn1cc(N3C(=O)OCC3C(F)F)nc1-2)C(N)=O
viability, T/C [1]: 27.2% | viability, T/C [2]: 24.2% | viability, T/C [3]: 29.6% | viability, T/C [4]: 24.5% | viability, T/C [5]: 26.2% | viability, T/C [6]: 5.32% | viability, T/C [7]: 27.5% | viability, T/C [8]: 27.6% | viability, T/C [9]: 25.7% | viability, T/C [10]: 25.6% | viability, T/C [11]: 23.5% | viability, T/C [12]: 4.5% | viability, T/C [13]: 26.8% | viability, T/C [14]: 29.1% | viability, T/C [15]: 22.2% | viability, T/C [16]: 23.8% | viability, T/C [17]: 27.3% | viability, T/C [18]: 4.59% | viability, T/C [19]: 24.1% | viability, T/C [20]: 20.6% | viability, T/C [21]: 22.1% | viability, T/C [22]: 24.8% | viability, T/C [23]: 22.9% | viability, T/C [24]: 3.21% | viability, T/C [25]: 20.6% | viability, T/C [26]: 21% | viability, T/C [27]: 21.1% | viability, T/C [28]: 19.5% | viability, T/C [29]: 20.2% | viability, T/C [30]: 3.5% | viability, T/C [31]: 18.4% | viability, T/C [32]: 19.3% | viability, T/C [33]: 16.6% | viability, T/C [34]: 19.6% | viability, T/C [35]: 18.2% | viability, T/C [36]: 2.31%
